In ChEMBL document CHEMBL1138140, “Inhibition of DNA helicases with DNA-competitive inhibitors” (Bioorg Med Chem Lett, 2006) one finds inhibition and IC50 data, which are given here for six molecules.

Common to all, as to assay type: functional
For test [1], the target named is T1, DNA helicase IV (Escherichia coli K-12) (UniProt P15038).
T1 sequence (whole entry): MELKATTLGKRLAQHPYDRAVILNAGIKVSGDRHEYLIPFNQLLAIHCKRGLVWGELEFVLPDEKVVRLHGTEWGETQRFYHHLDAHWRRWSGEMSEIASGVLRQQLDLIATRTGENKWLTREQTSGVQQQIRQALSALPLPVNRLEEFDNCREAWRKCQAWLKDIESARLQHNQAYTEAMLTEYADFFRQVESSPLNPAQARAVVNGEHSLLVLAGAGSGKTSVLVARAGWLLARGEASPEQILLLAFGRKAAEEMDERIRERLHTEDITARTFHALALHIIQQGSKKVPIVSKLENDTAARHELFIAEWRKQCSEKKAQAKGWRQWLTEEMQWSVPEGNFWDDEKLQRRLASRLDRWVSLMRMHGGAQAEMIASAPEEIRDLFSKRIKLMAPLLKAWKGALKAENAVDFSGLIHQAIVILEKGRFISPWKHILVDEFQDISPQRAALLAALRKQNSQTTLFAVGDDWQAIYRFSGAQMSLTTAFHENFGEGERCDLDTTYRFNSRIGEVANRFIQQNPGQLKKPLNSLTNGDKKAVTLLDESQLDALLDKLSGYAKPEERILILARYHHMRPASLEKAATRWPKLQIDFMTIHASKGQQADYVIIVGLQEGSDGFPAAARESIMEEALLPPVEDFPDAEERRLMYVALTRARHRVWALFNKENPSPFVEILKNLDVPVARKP
Nature of the test: Inhibition of ATPase activity of Helicase4 from Escherichia coli at 10 uM.

Test [2] deals with T2, DNA helicase IV (Escherichia coli K-12, UniProt P15038).
T2 sequence (P15038 whole entry): T1 sequence (whole entry)
Nature of the test: Inhibition of ATPase activity of Helicase4 from Escherichia coli in presence of ATP (5x Km(ATP)) and dT25 (5x KDNA).

In test [3] the target is T1, DNA helicase IV (Escherichia coli K-12). As to the kind of experiment: Inhibition of helicase activity of Helicase4 from Escherichia coli at 10 uM.
The target in test [4] is DNA helicase IV (Escherichia coli K-12, UniProt P15038, Y473A). As to the kind of experiment: Inhibition of ATPase activity of Tyr473Ala mutated Helicase4 in presence of ATP (5x Km(ATP)) and dT25 (5x KDNA).
Sequence of DNA helicase IV (Escherichia coli K-12, UniProt P15038, Y473A) (P15038 whole entry Y473A): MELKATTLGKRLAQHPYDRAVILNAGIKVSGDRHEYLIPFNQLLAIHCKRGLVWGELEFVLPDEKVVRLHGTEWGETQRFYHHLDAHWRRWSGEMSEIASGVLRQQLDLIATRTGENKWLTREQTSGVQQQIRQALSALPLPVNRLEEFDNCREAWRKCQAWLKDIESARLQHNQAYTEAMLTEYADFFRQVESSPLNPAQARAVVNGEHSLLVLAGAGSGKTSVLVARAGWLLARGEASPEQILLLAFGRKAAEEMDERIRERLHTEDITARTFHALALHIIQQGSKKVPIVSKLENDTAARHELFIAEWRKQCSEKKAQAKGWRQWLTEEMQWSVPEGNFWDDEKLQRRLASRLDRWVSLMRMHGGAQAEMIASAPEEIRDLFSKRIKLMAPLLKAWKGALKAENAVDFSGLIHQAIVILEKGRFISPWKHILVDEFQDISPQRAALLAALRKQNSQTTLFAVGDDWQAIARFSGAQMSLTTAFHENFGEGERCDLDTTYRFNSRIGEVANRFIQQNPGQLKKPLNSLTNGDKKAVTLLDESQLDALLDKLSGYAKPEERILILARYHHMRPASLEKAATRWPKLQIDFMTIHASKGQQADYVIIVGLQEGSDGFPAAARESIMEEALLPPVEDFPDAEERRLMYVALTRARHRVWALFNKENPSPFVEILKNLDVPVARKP

The inhibition is the percentage by which the read-out fell short of the control. Higher therefore signals strong suppression. One may read the IC50 as the midpoint of a concentration-inhibition curve. Take `CC(=O)Nc1ccc2c(c1)C(=O)c1cc(CC(=O)O)ccc1SC2`: the inhibition in test [1] was determined as 99%; in test [3], 89%. Further, the IC50 at DNA helicase IV [2] came out at 1.4 µM.
Turning to `O=C(O)Cc1ccc2c(c1)C(=O)c1ccccc1C[S+]2[O-]` (configuration not stated), the inhibition was found to be 2% in test [1] and 0% in test [3].
For the molecule `O=C(O)Cc1ccc2c(c1)C(=O)c1ccccc1CS2`, the figures for the IC50 on DNA helicase IV [4] and on DNA helicase IV [2] were 5.5 µM and 5 µM, respectively. Also, the inhibition in test [1] turned out to be 93%; in test [3], 79%.
As for `CC(C(=O)O)c1ccc2c(c1)C(=O)c1ccccc1CS2` (configuration not stated), the inhibition in test [1] was determined as 98%; in test [3], 93%. The half-maximal inhibitory concentration (IC50) on DNA helicase IV [2] came to 3 µM.
Turning to `Cc1ccc2c(c1)CSc1ccc(CC(=O)O)cc1C2=O`, the inhibition in test [1] is 78%; in test [3], 53%. Besides, the IC50 at DNA helicase IV [2] amounted to 7 µM.
For the molecule `CCOC(=O)Cc1ccc2c(c1)C(=O)c1ccccc1CS2`, the inhibition in test [1] came out at 0%; in test [3] it was 5%.
